Like-named read-outs stand apart in the source and are kept apart here.
Columns and labels:
Cathepsin D (Cat D) = Cathepsin D (Cat D) (Homo sapiens, UniProt P07339); experiment: In vitro enzymatic Cathepsin D (Cat D) FRET assay; type: biochemical
Method: In Vitro Enzymatic Cathepsin D (Cat D) FRET (Fluorescence Resonance Energy Transfer) Assay
Recombinant Cat D was expressed in CHO cells. The assay buffer for CathepsinD is 0.05 M citrate pH 3.5, 10% DMSO final, 5 mM CHAPS. The Cat D enzyme (9 nM) is pre-incubated for one hour with inhibitors, typically in about 1 uL of DMSO according to a serial dilution, is added thereto. The assays are effectively started by the addition of different FRET substrates (20 nM for Cat D) and the combination is incubated for one hour. The FRET assay is terminated with by addition of Tris buffer, which raises the pH to neutrality, and the fluorescence is determined. The FRET substrate is a peptide with commercially available fluorophore and quencher, on opposite sides of the BACE cleavage site. The Cat D substrate peptide sequence is based on sequence #1 of Table 1 from Gulnik et al. FEBS Letters v413 p 379-384 1997. Proteolytic cleavage of the FRET substrate releases quenching of fluorescence (Cat D excitation 500 nm and emission 580 nm). […]
See, for instance, examples 8, 12, 15, 16, 18, 21-23, 24, 25, 26, 29, 30, 32, 41-42, 45, 53, 54, 57, 63, 67-69, 72-74, 76, 79-81, 83 & 84 (to point to just a few; referring to data in Table 2). […] See, for instance, examples 8, 12, 15, 18, 21-23, 25, 29, 30, 32, 41-42, 45, 54, 57, 67-68, 72-73, 76, 80-81, 84, 86, 91-92 & 100 (to point out those from compound examples 1-100; and with reference to data in Table 2).

[1] = system: Aβ 40 in conditioned medium of cells stably expressing Amyloid Precursor Protein (APP); experiment: In vitro BACE cell-based assay (Aβ 40 sandwich ELISA); settings: Homo sapiens, HEK293
Method: In Vitro BACE Cell-Based Assay
The cell-based assay measures inhibition or reduction of […] in conditioned medium of test compound treated cells expressing amyloid precursor protein.
Cells stably expressing Amyloid Precursor Protein (APP) were plated at a density of 40K cells/well in 96 well plates (Costar). The cells were cultivated for 24 hours at 37° C. and 5% CO2 in DMEM supplemented with 10% FBS. The test compounds were then added to cells in 10-point dose response concentrations with the starting concentration being either 100 μM or 10 μM. The compounds were diluted from stock solutions in DMSO and the final DMSO concentration of the test compounds on cells was 0.1%. After 24 h of incubation with the test compounds the supernatant conditioned media was collected and the Aβ 40 levels were determined using a sandwich ELISA. The IC50 of the compound was calculated from the percent of control or percent inhibition of Aβ 40 as a function of the concentration of the test compound.
The sandwich ELISA to detect Aβ 40 was performed in 96 well microtiter plates, which were pre-treated with goat anti-rabbit IgG (Pierce). The capture and detecting antibody pair that were used to detect Aβ 40 from cell supernatants were affinity purified pAb40 (Biosource) and biotinylated 6E10 (Signet Labs Inc.), respectively. The optimal concentration for the pAb40 antibody was 3 μg/ml in Superblock/TBS (Pierce) that was supplemented with 0.05% Tween 20 (Sigma). Optimal concentration for the detection antibody 6E10-biotinylated was 0.5 μg/ml in Superblock/TBS (Pierce) that had been supplemented with 2% normal goat serum and 2% normal mouse serum.
Cellular supernatants were incubated with the capture antibody for 3 h at 4° C., followed by 3 wash steps in TBS-tween (0.05%). The detecting antibody incubation was for 2 h at 4° C., again followed by the wash steps as described previously. The final readout of the ELISA is Time-Resolved Fluorescence (counts per minute) using Delfia reagents Streptavidin-Europium and Enhancement solutions (Perkin Elmer) and the Victor 2 multilabel counter (Perkin Elmer).

[2] = molecular target: Beta Secretase enzyme (BACE) (Homo sapiens, UniProt P56817); experiment: In vitro enzymatic BACE FRET assay; type: biochemical; settings: read-out: BACE1 FRET assay IC50
Method: In Vitro Enzymatic BACE FRET (Fluorescence Resonance Energy Transfer) Assay (Enzyme Assay Data in the Example Table I)
The assay buffer used in this screen is 0.05 M acetate, pH 4.2, 10% DMSO final, 100 uM genapol (which is a nonionic detergent, below its Critical Micelle Concentration). The Beta Secretase enzyme (0.2 nM) is pre-incubated for one hour with inhibitors, typically in about 1 uL of DMSO according to a serial dilution, are added thereto. This assay is effectively started by the addition of FRET substrate (50 nM) and the combination is incubated for one hour. The FRET assay is terminated with by addition of Tris buffer, which raises the pH to neutrality, and the fluorescence is determined. The FRET substrate is a peptide with commercially available fluorophore and quencher, on opposite sides of the BACE cleavage site. Proteolytic cleavage of the FRET substrate releases quenching of fluorescence (excitation 488 nm and […]).

[3] = Cathepsin D FRET assay, read-out: CatD IC50
[4] = average IC50, HEK cell assay, Aβ 40 readout
[5] = average IC50, in vitro enzymatic BACE FRET assay

Sequence of Beta Secretase enzyme (BACE) (P56817 46-501): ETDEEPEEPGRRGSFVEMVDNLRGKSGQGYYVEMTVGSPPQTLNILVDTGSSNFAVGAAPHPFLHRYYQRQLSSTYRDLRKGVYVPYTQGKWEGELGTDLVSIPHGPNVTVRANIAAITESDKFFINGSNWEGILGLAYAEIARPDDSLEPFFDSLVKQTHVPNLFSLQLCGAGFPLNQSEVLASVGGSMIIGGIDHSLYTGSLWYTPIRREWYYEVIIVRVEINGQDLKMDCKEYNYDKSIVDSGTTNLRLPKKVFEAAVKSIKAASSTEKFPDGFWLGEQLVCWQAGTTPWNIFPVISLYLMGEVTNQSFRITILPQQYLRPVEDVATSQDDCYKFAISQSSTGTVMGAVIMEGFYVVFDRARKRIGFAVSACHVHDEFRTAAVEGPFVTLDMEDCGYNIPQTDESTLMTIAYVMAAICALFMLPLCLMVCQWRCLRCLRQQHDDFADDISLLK
Sequence of Cathepsin D (Cat D) (P07339 65-412, species assumed): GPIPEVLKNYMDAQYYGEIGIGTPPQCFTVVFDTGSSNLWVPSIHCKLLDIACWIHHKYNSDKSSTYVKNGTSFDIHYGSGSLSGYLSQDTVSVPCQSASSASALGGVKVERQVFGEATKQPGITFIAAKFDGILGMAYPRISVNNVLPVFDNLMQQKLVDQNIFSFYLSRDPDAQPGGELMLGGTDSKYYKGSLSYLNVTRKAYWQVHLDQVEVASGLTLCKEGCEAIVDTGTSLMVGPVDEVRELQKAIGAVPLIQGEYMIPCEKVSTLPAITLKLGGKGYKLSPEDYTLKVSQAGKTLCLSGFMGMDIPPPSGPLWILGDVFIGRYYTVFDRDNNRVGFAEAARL

C[C@H]1C[C@@H]2[C@](C)(N=C(N)C(C)(C)S2(=O)=O)c2cc(NC(=O)c3cnc(OCC(F)(F)F)cn3)ccc2O1 [Example 74, N-((4aR,6S,11bR)-2-amino-3,3,6,11b-tetramethyl-4,4-dioxido-4a,5,6,11b-tetrahydro-3H-[1]benzoxepino[4,5-b][1,4]thiazin-10-yl)-5-(2,2,2-trifluoroethoxy)-2-pyrazinecarboxamide]
IC50 (Cathepsin D (Cat D); read-out: CatD IC50): 871 µM | IC50 ([1]; HEK cell, average IC50): 0.007 µM | IC50 ([2]; average IC50): 0.003 µM

COc1cnc(C(=O)Nc2ccc3c(c2)[C@@]2(C)N=C(N)C(C)(C)S(=O)(=O)[C@@]2(F)CCO3)cn1 [Example 89, N-((4aS,11bR)-2-amino-4a-fluoro-3,3,11b-trimethyl-4,4-dioxido-4a,5,6,11b-tetrahydro-3H-[1]benzoxepino[4,5-b][1,4]thiazin-10-yl)-5-methoxy-2-pyrazinecarboxamide]
IC50 (Cathepsin D (Cat D); [3]): 400 µM | IC50 [1, 4]: 0.05 µM | IC50 [2, 5]: 0.028 µM

Cc1cc(Cl)cnc1C(=O)Nc1cnc2c(c1)[C@@]1(C)N=C(N)C(C)(C)S(=O)(=O)[C@@H]1CCO2 [Example 18, N-((4aR,11bR)-2-amino-3,3,11b-trimethyl-4,4-dioxido-4a,5,6,11b-tetrahydro-3H-pyrido[3′,2′:6,7]oxepino[4,5-b][1,4]thiazin-10-yl)-5-chloro-3-methyl-2-pyridinecarboxamide]
IC50 (Cathepsin D (Cat D); read-out: CatD IC50): 1290 µM | IC50 (Cathepsin D (Cat D); text summary referring to data in Table 2): > 1200 µM | IC50 ([1]; HEK cell, average IC50): 0.014 µM | IC50 ([2]; average IC50): 0.006 µM

C[C@H]1C[C@@H]2[C@](C)(N=C(N)C(C)(C)S2(=O)=O)c2cc(Nc3nccc4cc(C(F)(F)F)cnc34)ccc2O1 [Example 131, (4aR,6S,11bR)-2-amino-3,3,6,11b-tetramethyl-10-((3-(trifluoromethyl)-1,7-naphthyridin-8-yl)amino)-4a,5,6,11b-tetrahydro-3H-benzo[6,7]oxepino[4,5-b][1,4]thiazine 4,4-dioxide]
IC50 (Cathepsin D (Cat D); [3]): 443 µM | IC50 [1, 4]: 0.005 µM | IC50 [2, 5]: 0.005 µM

Cc1cc(C#N)cnc1C(=O)Nc1ccc2c(c1)[C@@]1(CF)N=C(N)C(C)(C)S(=O)(=O)[C@H]1CCO2 [Example 153, N-((4aS,11bS)-2-amino-11b-(fluoromethyl)-3,3-dimethyl-4,4-dioxido-4a,5,6,11b-tetrahydro-3H-[1]benzoxepino[4,5-b][1,4]thiazin-10-yl)-5-cyano-3-methyl-2-pyridinecarboxamide]
IC50 (Cathepsin D (Cat D); [3]): 2070 µM | IC50 [1, 4]: 0.006 µM | IC50 [2, 5]: 0.002 µM

CC(C#N)Oc1ccc(C(=O)Nc2ccc3c(c2)[C@@]2(C)N=C(N)C(C)(C)S(=O)(=O)[C@@H]2CCO3)nc1 (mixture of isomers) [Example 125, N-((4aR,11bR)-2-amino-3,3,11b-trimethyl-4,4-dioxido-4a,5,6,11b-tetrahydro-3H-[1]benzoxepino[4,5-b][1,4]thiazin-10-yl)-5-((1R)-1-cyanoethoxy)-2-pyridinecarboxamide, N-((4aR,11bR)-2-amino-3,3,11b-trimethyl-4,4-dioxido-4a,5,6,11b-tetrahydro-3H-[1]benzoxepino[4,5-b][1,4]thiazin-10-yl)-5-((15)-1-cyanoethoxy)-2-pyridinecarboxamide]
IC50 (Cathepsin D (Cat D); [3]): 1060 µM | IC50 [1, 4]: 0.067 µM | IC50 [2, 5]: 0.056 µM

CC1(C)C(N)=N[C@]2(C)c3cc(NC(=O)c4ccc(OC(F)F)cn4)ccc3OCC[C@H]2S1(=O)=O [Example 194, N-((4aR,11bR)-2-amino-3,3,11b-trimethyl-4,4-dioxido-4a,5,6,11b-tetrahydro-3H-[1]benzoxepino[4,5-b][1,4]thiazin-10-yl)-5-(difluoromethoxy)-2-pyridinecarboxamide]
IC50 (Cathepsin D (Cat D); read-out: CatD IC50): 652 µM | IC50 ([1]; HEK cells, average IC50): 0.003 µM | IC50 ([2]; average IC50): 0.008 µM

Cc1cc(OC(F)F)cnc1C(=O)Nc1ccc2c(c1)[C@@]1(C)N=C(N)C(C)(C)S(=O)(=O)[C@H]1CCC2 [Example 39, N-((4aS,11bR)-2-amino-3,3,11b-trimethyl-4,4-dioxido-3,4a,5,6,7,11b-hexahydrobenzo[3,4]cyclohepta[1,2-b][1,4]thiazin-10-yl)-5-(difluoromethoxy)-3-methyl-2-pyridinecarboxamide]
IC50 (Cathepsin D (Cat D); read-out: CatD IC50): > 400 µM | IC50 ([1]; HEK cell, average IC50): 0.022 µM | IC50 ([2]; average IC50): 0.142 µM

COc1cnc(C(=O)Nc2ccc3c(c2)[C@@]2(CF)N=C(N)C(C)(C)S(=O)(=O)[C@@H]2C[C@H](C)O3)cn1 [Example 107, N-((4aR,6S,11bS)-2-amino-11b-(fluoromethyl)-3,3,6-trimethyl-4,4-dioxido-4a,5,6,11b-tetrahydro-3H-[1]benzoxepino[4,5-b][1,4]thiazin-10-yl)-5-methoxy-2-pyrazinecarboxamide]
IC50 (Cathepsin D (Cat D); [3]): > 400 µM | IC50 [1, 4]: 0.11 µM | IC50 [2, 5]: 0.095 µM

COc1cnc(C(=O)Nc2ccc3c(c2)[C@@]2(C)N=C(N)C(C)(C)S(=O)(=O)[C@H]2CCO3)c(C)c1 [Example 161, N-((4aS,11bR)-2-amino-3,3,11b-trimethyl-4,4-dioxido-4a,5,6,11b-tetrahydro-3H-[1]benzoxepino[4,5-b][1,4]thiazin-10-yl)-5-methoxy-3-methyl-2-pyridinecarboxamide]
IC50 (Cathepsin D (Cat D); read-out: CatD IC50): 878 µM | IC50 ([1]; HEK cells, average IC50): 0.008 µM | IC50 ([2]; average IC50): 0.032 µM

CCCOc1cnc2c(Nc3ccc4c(c3)[C@@]3(C)N=C(N)C(C)(C)S(=O)(=O)[C@@H]3C[C@H](C)O4)nccc2n1 [Example 135, (4aR,6S,11bR)-3,3,6,11b-tetramethyl-N^~10^~-(2-propoxypyrido[3,4-b]pyrazin-5-yl)-4a,5,6,11b-tetrahydro-3H-[1]benzoxepino[4,5-b][1,4]thiazine-2,10-diamine 4,4-dioxide]
IC50 (Cathepsin D (Cat D); [3]): 104 µM | IC50 [1, 4]: 0.139 µM | IC50 [2, 5]: 0.026 µM

COc1cnc(C(=O)Nc2ccc3c(c2)[C@@]2(C)N=C(N)C(C)(C)S(=O)(=O)[C@@H]2CCS3)cn1 [Example 117, N-((4aR,11bR)-2-amino-3,3,11b-trimethyl-4,4-dioxido-4a,5,6,11b-tetrahydro-3H-[1]benzothiepino[4,5-b][1,4]thiazin-10-yl)-5-methoxy-2-pyrazinecarboxamide]
IC50 (Cathepsin D (Cat D); [3]): 168 µM | IC50 [1, 4]: 0.003 µM | IC50 [2, 5]: 0.014 µM

CC#CCOc1cnc(C(=O)Nc2ccc3c(c2)[C@@]2(C)N=C(N)C(C)(C)S(=O)(=O)[C@]2(F)CCO3)cn1 [Example 94, N-((4aR,11bR)-2-amino-4a-fluoro-3,3,11b-trimethyl-4,4-dioxido-4a,5,6,11b-tetrahydro-3H-[1]benzoxepino[4,5-b][1,4]thiazin-10-yl)-5-(2-butyn-1-yloxy)-2-pyrazinecarboxamide]
IC50 (Cathepsin D (Cat D); [3]): > 400 µM | IC50 [1, 4]: 0.008 µM
